Reference: patent US11753407B2, “Compounds for treating spinal muscular atrophy” (PTC Therapeutics, Inc., priority 2012, dated 2023)

Tests used:
[1] = test system: Smn protein produced from the SMN2 gene; assay: Smn protein assay in tissues of adult C/C-allele SMA mice; assay type: in vivo; conditions: brain, spinal cord, muscle
Method: This Smn protein assay compares tissues from test compound treated mice with those from DMSO vehicle treated mice to determine the increase in levels of Smn protein produced from the human SMN2 gene.
Protocol. The tissue samples in Safe-Lock tubes are weighed and the volume of RIPA buffer containing the protease inhibitor cocktail is added based on the weight to volume ratios for each type of tissue: Brain (50 mg/mL), Muscle (50 mg/mL) and Spinal Cord (25 mg/mL).
Tissues are homogenized using the TissueLyzer by bead milling. 5 mm stainless steel beads are added to the sample and shaken vigorously for 5 minutes at 30 Hz in the TissueLyzer. […] Fluorescence for each well of the plate at 665 nm and 620 nm is measured on an EnVision multilabel plate reader (Perkin-Elmer). The total protein in the tissue homogenate is measured using the BCA assay according to the manufacturer's protocol.
The normalized fluorescence signal is calculated for each sample, Blank and vehicle control well by dividing the signal at 665 nm by the signal at 620 nm. Normalizing the signal accounts for possible fluorescence quenching due to the matrix effect of the tissue homogenate. […] The ΔF value for each tissue sample well is divided by the total protein quantity (determined using the BCA assay) for that tissue sample. […]

[2] = test system: SMN2 mRNA in tissues of C/C-allele SMA mice; assay: SMN2 mRNA RT-qPCR splicing assay in animal tissues; assay type: in vivo; conditions: brain and muscle, 10 mg/kg BID oral gavage 10 days, versus vehicle (FIG. 6)
Method: The reverse transcription-quantitative PCR-based (RT-qPCR) assay is used to quantify the levels of the full length and Δ7 SMN2 mRNA in tissues from mice treated with test compound.
Protocol. C/C-allele SMA mice are treated by oral gavage two times per day (BID) for 10 days with test compounds re-suspended in 0.5% HPMC and 0.1% Tween-80. Tissue samples were collected and snap frozen for RNA purification.
Tissue samples (20-40 mg) are homogenized in QIAzol Lysis Reagent for 2 minutes at 20 Hz in the TissueLyser II using one stainless steel bead. After addition of chloroform, the homogenate is separated into aqueous and organic phases by centrifugation. RNA partitioned to the upper, aqueous phase is extracted and ethanol is added to provide appropriate binding conditions. The sample is then applied to the RNeasy spin column from the RNeasy Mini Kit, where total RNA binds to the membrane. The RNA is eluted in RNase-free water then stored at −20° C. and subsequently analyzed using the TaqMan RT-qPCR on the 7900HT Thermocycler. Total RNA is diluted ten fold and 2.5 μL of the diluted sample is added to the TaqMan RT-qPCR mixture.
SMN2 spliced products are identified using the following primers and probe in Table 7. Primer SMN FL Forward B (SEQ ID NO. 7) hybridizes to a nucleotide sequence in exons 7 and 8, primer SMN Δ7 Forward B (SEQ ID NO. 8) hybridizes to a nucleotide sequence in exons 6 and 8, primer SMN Reverse B (SEQ ID NO. 9) hybridizes to a nucleotide sequence in exon 8, probe SMN Probe B (SEQ ID NO. 10) hybridizes to a nucleotide sequence in exon 8. These primers and probe hybridize to nucleotide sequences common to human SMN1 and SMN2 mRNA. Since the SMA patient cells used in Example 5 contain only the SMN2 gene, RT-qPCR can quantify only SMN2 full-length and Δ7 mRNA.
The SMN forward and reverse primers are used at final concentrations of 0.4 μM. The SMN probe is used at a final concentration of 0.15 μM. The SMN-GAPDH Mix (10 μL total volume) is prepared by combining 5 μL of 2× RT-PCR buffer, 0.4 μL of 25× RT-PCR enzyme mix, 0.5 μL of 20× GAPDH primer-probe mix, 1.505 μL of water, 2.5 μL of RNA solution, 0.04 μL of 100 μM forward primer, 0.04 μL of 100 μM reverse primer, and 0.015 μL of 100 μM SMN probe. […]
The increase of SMN2 FL and decrease in SMN2 Δ7 mRNA relative to those in tissues from animals treated with vehicle control are determined from real-time PCR data using a modified ΔΔCt method (as described in Livak and Schmittgen, Methods, 2001, 25:402-8). The amplification efficiency (E) is calculated from the slope of the amplification curve for SMN2 FL, SMN2 Δ7, and GAPDH individually. The abundances of SMN2 FL, SMN2 Δ7, and GAPDH are then calculated as (1+E)^−Ct, where Ct is the threshold value for each amplicon. […]

Compound | total protein-normalized Smn level ([1]; 100 mg/kg BID for 10 days, relative to vehicle group (FIG. 11a)) | SMN2 FL mRNA [2] | SMN2 Δ7 mRNA [2] | total protein-normalized Smn level ([1]; 10 mg/kg BID for 10 days, relative to vehicle group (FIG. 11b))
COc1ccc(-c2cc(=O)n3cc(N4CCNCC4)ccc3n2)cc1OC [Cpd 6, 2-(3,4-dimethoxyphenyl)-7-(piperazin-1-yl)-4H-pyrido[1,2-a]pyrimidin-4-one] | increased in brain, spinal cord, and muscle tissues | substantially more SMN2 FL mRNA | less SMN2 Δ7 mRNA | –
Cc1cn2nc(-c3cc(=O)n4cc(N5CCN(C)CC5)ccc4n3)cc2c(C)n1 [Cpd 170, 2-(4,6-dimethylpyrazolo[1,5-a]pyrazin-2-yl)-7-(4-methylpiperazin-1-yl)-4H-pyrido[1,2-a]pyrimidin-4-one] | – | substantially more SMN2 FL mRNA | less SMN2 Δ7 mRNA | increased in brain, spinal cord, and muscle tissues
